The values that follow come from patent US20200009211A1, “CURCUMIN-CONTAINING MEDICINAL PREPARATION” (SAN-EI GEN F.F.I., INC., priority 2017, published 2020).

SMILES strings stand for the structures.

The experiment is described as follows: Curcumin administration test (A) in HFD-challenged mice: plasma TCHO, CM, LDL (Test Example 11). The experiment is classed as in vivo, mice (C57BL/6). Conditions: HFD-challenged C57BL/6 mice, ad libitum drinking of aqueous liquid for 12 weeks. As to the method:
In this test, total cholesterol (TCHO), chylomicron (CM), and LDL cholesterol (LDL) were measured. […] After the feeding period, blood was sampled and centrifuged at […] at 4° C. for 15 minutes to obtain plasma. The plasma was measured by a Fuji Dri-Chem 4000V biochemical automatic analyzer (Fujifilm, Tokyo, Japan).

As to `CC(C)(Oc1ccc(CCNC(=O)c2ccc(Cl)cc2)cc1)C(=O)O` [Bezafibrate], the “CM (chylomicron) in plasma” value stood at 0.53 mg/dL, the “LDL (LDL cholesterol) in plasma” value came out at 17.9 mg/dL and the “TCHO (total cholesterol) in plasma” value turned out to be 125.0 mg/dL.
